This note sets out measurements from patent US8022206B2 (OSI Pharmaceuticals, LLC, priority 2008, dated 2011).

The target of one test is MET (human) (Homo sapiens, UniProt P08581). Kind of test: MET (human) AlphaScreen kinase assay, Km of ATP. Format: biochemical. The following applies: AlphaScreen, Km of ATP; read-out: Met biochemical IC50. A digest of the protocol: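 Human MET at lot-optimised concentration in 50 mM Tris pH 7.4 buffer with 1 mM DTT, compound at 1% DMSO final; enzyme starts the reaction, 60 min at RT.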
Sequence of MET (human) (P08581 25-1390): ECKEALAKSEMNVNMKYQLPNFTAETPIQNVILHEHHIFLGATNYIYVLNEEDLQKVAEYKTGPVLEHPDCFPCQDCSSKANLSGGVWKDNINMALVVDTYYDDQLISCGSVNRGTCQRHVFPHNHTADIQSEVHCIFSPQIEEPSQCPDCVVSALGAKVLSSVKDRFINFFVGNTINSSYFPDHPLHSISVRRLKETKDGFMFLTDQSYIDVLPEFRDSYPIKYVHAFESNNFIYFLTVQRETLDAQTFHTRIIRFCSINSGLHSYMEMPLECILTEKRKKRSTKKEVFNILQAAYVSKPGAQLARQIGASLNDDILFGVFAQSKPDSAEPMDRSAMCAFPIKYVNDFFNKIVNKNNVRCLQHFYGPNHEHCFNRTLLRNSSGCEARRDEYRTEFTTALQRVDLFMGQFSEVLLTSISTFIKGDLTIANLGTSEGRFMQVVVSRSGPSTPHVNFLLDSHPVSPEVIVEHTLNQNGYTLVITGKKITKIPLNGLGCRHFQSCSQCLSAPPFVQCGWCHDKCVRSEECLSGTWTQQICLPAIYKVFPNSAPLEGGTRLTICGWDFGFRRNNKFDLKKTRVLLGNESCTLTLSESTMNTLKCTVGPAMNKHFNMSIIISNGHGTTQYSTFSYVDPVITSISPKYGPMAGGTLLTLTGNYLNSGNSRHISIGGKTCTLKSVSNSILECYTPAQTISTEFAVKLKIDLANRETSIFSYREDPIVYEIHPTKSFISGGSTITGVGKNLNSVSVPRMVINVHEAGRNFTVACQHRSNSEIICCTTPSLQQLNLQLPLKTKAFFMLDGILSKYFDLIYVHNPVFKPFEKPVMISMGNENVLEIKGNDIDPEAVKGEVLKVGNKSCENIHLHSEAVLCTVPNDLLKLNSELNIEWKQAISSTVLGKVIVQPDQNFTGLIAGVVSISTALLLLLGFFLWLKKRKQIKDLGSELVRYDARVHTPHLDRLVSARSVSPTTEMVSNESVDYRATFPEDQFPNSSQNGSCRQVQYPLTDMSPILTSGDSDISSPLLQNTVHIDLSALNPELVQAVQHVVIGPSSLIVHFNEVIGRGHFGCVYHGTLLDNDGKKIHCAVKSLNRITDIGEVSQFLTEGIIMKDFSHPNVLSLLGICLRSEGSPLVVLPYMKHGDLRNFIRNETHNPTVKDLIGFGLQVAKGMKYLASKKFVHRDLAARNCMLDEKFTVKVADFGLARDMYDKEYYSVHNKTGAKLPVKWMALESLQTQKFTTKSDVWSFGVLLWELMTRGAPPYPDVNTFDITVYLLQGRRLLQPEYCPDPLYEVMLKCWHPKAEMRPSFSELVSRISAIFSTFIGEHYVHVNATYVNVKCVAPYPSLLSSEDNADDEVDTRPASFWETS
For orientation: In Alpha technology, singlet oxygen from a donor bead excites a nearby acceptor bead.

For the next test, the target named is RON (human) (Homo sapiens, UniProt Q04912). Kind of test: RON (human) AlphaScreen kinase assay, Km of ATP. It is filed as biochemical. Conditions: AlphaScreen, Km of ATP; read-out: RON biochemical IC50. A digest of the protocol:
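Detection used PT66 AlphaScreen beads added in Tris pH 7.5/NaCl/EDTA/BSA buffer, read after 1 h incubation. Vehicle-only DMSO wells served as controls.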

The structures appear in SMILES notation.

Sequence of RON (human) (Q04912 25-1400): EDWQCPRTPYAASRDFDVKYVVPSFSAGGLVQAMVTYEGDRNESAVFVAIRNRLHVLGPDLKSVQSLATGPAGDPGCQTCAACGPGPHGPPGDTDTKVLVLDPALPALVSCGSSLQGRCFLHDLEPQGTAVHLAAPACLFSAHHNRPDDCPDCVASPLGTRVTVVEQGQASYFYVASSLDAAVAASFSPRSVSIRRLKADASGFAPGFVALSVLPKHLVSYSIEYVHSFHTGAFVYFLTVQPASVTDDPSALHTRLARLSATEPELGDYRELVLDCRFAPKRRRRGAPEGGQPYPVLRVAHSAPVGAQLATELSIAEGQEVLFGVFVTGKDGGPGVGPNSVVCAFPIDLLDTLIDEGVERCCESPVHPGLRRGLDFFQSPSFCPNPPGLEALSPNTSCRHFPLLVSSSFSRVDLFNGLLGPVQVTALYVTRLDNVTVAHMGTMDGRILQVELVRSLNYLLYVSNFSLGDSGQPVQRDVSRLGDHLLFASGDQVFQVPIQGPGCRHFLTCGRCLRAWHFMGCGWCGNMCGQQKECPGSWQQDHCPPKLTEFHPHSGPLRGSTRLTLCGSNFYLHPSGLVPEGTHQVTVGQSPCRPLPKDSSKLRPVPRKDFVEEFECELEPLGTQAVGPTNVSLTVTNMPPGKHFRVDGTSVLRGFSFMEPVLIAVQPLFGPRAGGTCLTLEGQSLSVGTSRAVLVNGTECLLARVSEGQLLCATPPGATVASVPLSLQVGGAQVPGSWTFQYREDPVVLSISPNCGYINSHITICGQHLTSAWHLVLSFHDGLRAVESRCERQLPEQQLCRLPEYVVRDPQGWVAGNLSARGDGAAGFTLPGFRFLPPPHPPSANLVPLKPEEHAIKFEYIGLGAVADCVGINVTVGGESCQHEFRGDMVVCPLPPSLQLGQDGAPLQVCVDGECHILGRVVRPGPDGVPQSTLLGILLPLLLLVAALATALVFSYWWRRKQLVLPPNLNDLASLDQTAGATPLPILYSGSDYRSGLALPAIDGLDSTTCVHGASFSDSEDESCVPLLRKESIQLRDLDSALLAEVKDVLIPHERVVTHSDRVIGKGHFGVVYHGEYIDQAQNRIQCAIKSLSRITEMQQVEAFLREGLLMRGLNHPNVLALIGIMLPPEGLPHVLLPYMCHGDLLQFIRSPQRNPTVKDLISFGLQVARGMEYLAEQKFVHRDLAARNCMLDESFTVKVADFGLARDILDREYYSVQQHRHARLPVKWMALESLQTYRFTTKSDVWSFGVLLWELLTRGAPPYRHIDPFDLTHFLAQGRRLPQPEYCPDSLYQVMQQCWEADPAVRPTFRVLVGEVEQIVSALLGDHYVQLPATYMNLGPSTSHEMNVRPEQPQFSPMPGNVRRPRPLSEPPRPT

For the compound `C[C@@H](Oc1c(N)ncc2c(C3=CCN(C(=O)N4CC5CC4CO5)CC3)coc12)c1c(Cl)ccc(F)c1Cl` (stereo partly drawn) [Example 223, (4-{6-Amino-7-[(R)-1-(2,6-dichloro-3-fluorophenyl)ethoxy]-furo[3,2-c]pyridin-3-yl}-3,6-dihydro-2H-pyridin-1-yl)-(2-oxa-5-azabicyclo[2.2.1]hept-5-yl)methanone], the IC50 at MET (human) and on RON (human) was 500 to 5000 nM each time.

For `CC(Cc1cccc(Br)c1)Oc1c(N)ncc2c(-c3cnn(C4CCNCC4)c3)coc12` (stereo not shown) [Example 439, 7-[2-(3-Bromophenyl)-1-methylethoxy]-3-(1-piperidin-4-yl-1H-pyrazol-4-yl)furo[3,2-c]pyridin-6-ylamine], the IC50 on MET (human) and at RON (human) was less than 500 nM each time.

`CC(C)NC(=O)c1cc(-c2coc3c(O[C@H](C)c4c(Cl)ccc(F)c4Cl)c(N)ncc23)cs1` [Example 312, 4-{6-Amino-7-[(R)-1-(2,6-dichloro-3-fluorophenyl)ethoxy]furo[3,2-c]pyridin-3-yl}thiophene-2-carboxylic acid isopropylamide]: the IC50 (usually the midpoint of a concentration-inhibition curve) at MET (human) is less than 500 nM; on RON (human) it was 500 to 5000 nM.

As to `CNC(=O)c1csc(-c2coc3c(O[C@H](C)c4c(Cl)ccc(F)c4Cl)c(N)ncc23)c1` [Example 327, 5-{6-Amino-7-[(R)-1-(2,6-dichloro-3-fluorophenyl)ethoxy]furo[3,2-c]pyridin-3-yl}thiophene-3-carboxylic acid methylamide], the IC50 on MET (human) lay within 500 to 5000 nM; on RON (human), 5000 to 20000 nM.

`C[C@@H](Oc1c(N)ncc2c(C3=CCN(C(=O)Nc4ccccc4F)CC3)coc12)c1c(Cl)ccc(F)c1Cl` [Example 150, 4-{6-Amino-7-[(1R)-1-(2,6-dichloro-3-fluorophenyl)ethoxy]furo[3,2-c]pyridin-3-yl}-N-(2-fluorophenyl)-3,6-dihydropyridine-1(2H)-carboxamide]: the IC50 at MET (human) and on RON (human) was 500 to 5000 nM in each case.

For the compound `C[C@@H](Oc1c(N)ncc2c(-c3cnn(C4CCNCC4)c3)coc12)c1cccc(F)c1` [Example 337, 7-[(R)-1-(3-fluorophenyl)ethoxy]-3-(1-piperidin-4-yl-1H-pyrazol-4-yl)-furo[3,2-c]pyridin-6-ylamine], the IC50 on MET (human) was less than 500 nM; at RON (human) it was 500 to 5000 nM.

In the case of `C[C@@H](Oc1c(N)ncc2c(C3=CCN(C4CNC4)CC3)coc12)c1c(Cl)ccc(F)c1Cl` [Example 322, 3-(1-Azetidin-3-yl-1,2,3,6-tetrahydropyridin-4-yl)-7-[(R)-1-(2,6-dichloro-3-fluorophenyl)ethoxy]furo[3,2-c]pyridin-6-ylamine], the IC50 on MET (human) and on RON (human) was less than 500 nM throughout.

As for `C[C@@H](Oc1c(N)ncc2c(C3=CCN(/C(N)=N\C#N)CC3)coc12)c1c(Cl)ccc(F)c1Cl` [Example 197, 4-{6-Amino-7-[(R)-1-(2,6-dichloro-3-fluorophenyl)ethoxy]-furo[3,2-c]pyridin-3-yl}-N-cyano-3,6-dihydro-2H-pyridine-1-carboxamidine], the IC50 on MET (human) and on RON (human) was 500 to 5000 nM in each case.

`CC(Oc1c(N)ncc2c(-c3cnn(C4CCNCC4)c3)coc12)c1c(Cl)c(F)cc(OC2CCNCC2)c1Cl` (stereo not shown) [Example 158, 7-{1-[2,6-Dichloro-3-fluoro-5-(piperidin-4-yloxy)phenyl]ethoxy}-3-[1-(piperidin-4-yl)-1H-pyrazol-4-yl]furo[3,2-c]pyridin-6-amine]: the half-maximal inhibitory concentration (IC50) on MET (human) and at RON (human) was less than 500 nM throughout.

With `COCCNC(=O)c1ccc(-c2coc3c(O[C@H](C)c4c(Cl)ccc(F)c4Cl)c(N)ncc23)cc1` [Example 285, 4-{6-Amino-7-[(R)-1-(2,6-dichloro-3-fluorophenyl)ethoxy]furo[3,2-c]pyridin-3-yl}-N-(2-methoxyethyl)benzamide], the IC50 at MET (human) and on RON (human) was 500 to 5000 nM throughout.

For `CC(C)NC(=O)c1coc2c(O[C@H](C)c3c(Cl)ccc(F)c3Cl)c(N)ncc12` [Example 183, 6-Amino-7-[(R)-1-(2,6-dichloro-3-fluorophenyl)ethoxy]furo[3,2-c]pyridine-3-carboxylic acid isopropylamide], the IC50 on MET (human) and at RON (human) was 500 to 5000 nM in each case.

In the case of `C[C@@H](Oc1c(N)ncc2c(-c3ccc(N4CCN(C(N)=O)CC4)nc3)coc12)c1c(Cl)ccc(F)c1Cl` [Example 319, 4-(5-{6-Amino-7-[(R)-1-(2,6-dichloro-3-fluorophenyl)ethoxy]furo[3,2-c]pyridin-3-yl}pyridin-2-yl)piperazine-1-carboxamide], the IC50 on MET (human) and on RON (human) was 500 to 5000 nM in each case.

Turning to `CCS(=O)(=O)N1CC=C(c2coc3c(O[C@H](C)c4c(Cl)ccc(F)c4Cl)c(N)ncc23)CC1` [Example 47, 7-[(R)-1-(2,6-Dichloro-3-fluorophenyl)-ethoxy]-3-(1-ethanesulfonyl-1,2,3,6-tetrahydropyridin-4-yl)-furo[3,2-c]pyridin-6-ylamine], the IC50 on MET (human) and on RON (human) was 500 to 5000 nM in each case.

As to `C[C@@H](Oc1c(N)ncc2c(C(N)=O)coc12)c1c(Cl)ccc(F)c1Cl` [Example 180, 6-Amino-7-[(R)-1-(2,6-dichloro-3-fluorophenyl)ethoxy]furo[3,2-c]pyridine-3-carboxamide], the figures for the IC50 on MET (human) and on RON (human) were 500 to 5000 nM and 5000 to 20000 nM, respectively.

Take `CC(Oc1c(N)ncc2c(-c3cnn(C4CCNCC4)c3)coc12)c1ccc(F)cc1` (stereo not shown) [Example 376, 7-[1-(4-Fluorophenyl)ethoxy]-3-(1-piperidin-4-yl-1H-pyrazol-4-yl)furo[3,2-c]pyridin-6-ylamine]: the IC50 at MET (human) and on RON (human) was 500 to 5000 nM throughout.

On to `C[C@@H](Oc1c(N)ncc2c(-c3cccc(N)c3)coc12)c1c(Cl)ccc(F)c1Cl` [Example 66, 3-(3-Aminophenyl)-7-[(R)-1-(2,6-dichloro-3-fluorophenyl)ethoxy]-furo[3,2-c]pyridin-6-ylamine], for which the IC50 on MET (human) and at RON (human) was 500 to 5000 nM in each case.

Turning to `C[C@@H](Oc1c(N)ncc2c(C(=O)N(C)C)coc12)c1c(Cl)ccc(F)c1Cl` [Example 177, 6-Amino-7-[(R)-1-(2,6-dichloro-3-fluorophenyl)ethoxy]furo[3,2-c]pyridine-3-carboxylic acid dimethylamide], the figures for the IC50 at MET (human) and at RON (human) were 500 to 5000 nM and 5000 to 20000 nM, respectively.

Turning to `C[C@@H](Oc1c(N)ncc2c(C3=CCN(C(=O)CN)CC3)coc12)c1c(Cl)ccc(F)c1Cl` [Example 253, 2-Amino-1-[4-{6-amino-7-[(1R)-1-(2,6-dichloro-3-fluorophenyl)ethoxy]furo[3,2-c]pyridin-3-yl}-3,6-dihydropyridin-1(2H)-yl]ethanone], the IC50 at MET (human) and at RON (human) was less than 500 nM each time.

Take `C[C@@H](Oc1c(N)ncc2c(C3=CCN(C(=O)NC(C)(C)C)CC3)coc12)c1c(Cl)ccc(F)c1Cl` [Example 148, 4-{6-Amino-7-[(1R)-1-(2,6-dichloro-3-fluorophenyl)ethoxy]furo[3,2-c]pyridin-3-yl}-N-tert-butyl-3,6-dihydropyridine-1(2H)-carboxamide]: the IC50 is less than 500 nM at MET (human) and 500 to 5000 nM on RON (human).

Consider `C[C@@H](Oc1c(N)ncc2c(-c3cc(C(=O)N(C)C)cs3)coc12)c1c(Cl)ccc(F)c1Cl` [Example 328, 5-{6-Amino-7-[(R)-1-(2,6-dichloro-3-fluorophenyl)ethoxy]furo[3,2-c]pyridin-3-yl}thiophene-3-carboxylic acid Dimethylamide], for which the IC50 on MET (human) and on RON (human) was 500 to 5000 nM in each case.

On to `C[C@@H]1CN(C(=O)N2CC=C(c3coc4c(O[C@H](C)c5c(Cl)ccc(F)c5Cl)c(N)ncc34)CC2)C[C@H](C)N1C` (relative stereo) [Example 221, (4-{6-Amino-7-[(R)-1-(2,6-dichloro-3-fluorophenyl)ethoxy]-furo[3,2-c]pyridin-3-yl}-3,6-dihydro-2H-pyridin-1-yl)-((3R*,5S*)-3,4,5-trimethylpiperazin-1-yl)-methanone], for which the IC50 at MET (human) and on RON (human) was less than 500 nM in each case.

With `CC(/C=C/c1c(Cl)ccc(F)c1Cl)Oc1c(N)ncc2c(-c3cnn(C4CCNCC4)c3)coc12` (stereo not shown) [Example 373, 7-[(E)-3-(2,6-Dichloro-3-fluorophenyl)-1-methylallyloxy]-3-(1-piperidin-4-yl-1H-pyrazol-4-yl)furo[3,2-c]pyridin-6-ylamine], the IC50 was less than 500 nM at MET (human) and 500 to 5000 nM on RON (human).

`C[C@@H](Oc1c(N)ncc2c(-c3cnn(C)c3)coc12)c1c(Cl)ccc(F)c1Cl` [Example 4, 7-[(R)-1-(2,6-Dichloro-3-fluorophenyl)-ethoxy]-3-(1-methyl-1H-pyrazol-4-yl)-furo[3,2-c]pyridin-6-ylamine]: the IC50 on MET (human) and at RON (human) was 500 to 5000 nM in each case.

Regarding `C[C@@H](Oc1c(N)ncc2c(C3=CCN(C(=O)C(F)(F)F)CC3)coc12)c1c(Cl)ccc(F)c1Cl` [Example 56, 1-(4-{6-Amino-7-[(R)-1-(2,6-dichloro-3-fluorophenyl)-ethoxy]-furo[3,2-c]pyridin-3-yl}-3,6-dihydro-2H-pyridin-1-yl)-2,2,2-trifluoroethanone], the IC50 at MET (human) and at RON (human) was 500 to 5000 nM in each case.

As to `C[C@@H](Oc1c(N)ncc2c(-c3ccc(O)cc3)coc12)c1c(Cl)ccc(F)c1Cl` [Example 59, 4-{6-Amino-7-[(R)-1-(2,6-dichloro-3-fluorophenyl)ethoxy]-furo[3,2-c]pyridin-3-yl}phenol], the IC50 at MET (human) and at RON (human) was 500 to 5000 nM in each case.

Take `CC(C)NC(=O)c1csc(-c2coc3c(O[C@H](C)c4c(Cl)ccc(F)c4Cl)c(N)ncc23)c1` [Example 330, 5-{6-Amino-7-[(R)-1-(2,6-dichloro-3-fluorophenyl)ethoxy]furo[3,2-c]pyridin-3-yl}thiophene-3-carboxylic acid Isopropylamide]: the IC50 at MET (human) and at RON (human) was 5000 to 20000 nM in each case.
